Measured values published in patent publication US12376590B2, “Compositions comprising pyridine carboxylate herbicides and azole carboxylate safeners” (Corteva Agriscience LLC, priority 2018, dated 2025).

How the values were obtained:
Test in all cases: Greenhouse postemergence herbicidal safening trial, visual injury after 20-22 d
[1] = tested on: Chinese sprangletop (LEFCH); assay type: in vivo, Leptochloa chinensis
Source text: (§1) Greenhouse Trial Methodology—Evaluation of Postemergence Herbicidal Safening in Crops
(§2) Seeds of the desired test plant species were planted in a 90:10% v/v (volume/volume) mixture of PRO-MIX® BX (Premier Tech Horticulture, Quakertown, PA, USA) and PROFILE® GREENS GRADE™ (Profile Products LLC, Buffalo Grove, IL, USA) planting mixture, which typically has a pH of 5.2 to 6.2 and an organic matter content of at least 50 percent, in plastic pots with a surface area of 103.2 square centimeters (cm^2). When required to ensure good germination and healthy plants, a fungicide treatment and/or other chemical or physical treatment was applied. The plants were grown for 7-36 days (d) in a greenhouse with an approximate 14-hour (h) photo-period which was maintained at about 23° C. during the day and 22° C. during the night. Nutrients and water were added on a regular basis and supplemental lighting was provided with overhead metal halide 1000-Watt lamps as necessary. The plants were employed for testing when they reached the second or third true leaf stage.
(§3) Emulsifiable concentrates of each of each pyridine carboxylate herbicide (Compound A or Compound B) were prepared at 100 grams acid equivalent per liter (g ae/L). An aliquot of each emulsifiable concentrate was placed in a 25 mL glass vial and diluted with an aqueous mixture of 1.25% (v/v) ACTIROB® B esterified rapeseed oil (Bayer Crop Science, Research Triangle Park, NC, USA) or MSO® Concentrate with LECI-TECH® methylated soybean oil (Loveland Products, Loveland, CO, USA) to obtain concentrated stock solutions at the highest application rate for each herbicide, based upon a 12 milliliter (mL) application volume at a rate of 187 liters per hectare (L/ha). The concentrated stock solutions were further diluted with an aqueous mixture of 1.25% v/v ACTIROB® B or MSO® Concentrate with LECI-TECH® to obtain stock solutions at reduced application rates for each herbicide. Spray solutions of the herbicide combinations (Compound A or Compound B plus safener) were prepared by adding weighed amounts or aliquots of the azole carboxylate safener to the stock solutions of Compound A or Compound B to form 12-mL spray solutions in two-way combinations.
(§4) The spray solutions were applied to the plant material with an overhead Mandel track sprayer equipped with 8002E nozzles calibrated to deliver 187 L/ha over an application area of 0.503 square meters (m^2) at a spray height of 18 inches (43 centimeters (cm)) above the average plant canopy. Control plants were sprayed in the same manner with the solvent blank. All herbicide (component a) application rates are given as “g ae/ha” and all safener (component b) application rates are given as “g ai/ha.”
(§5) The treated plants and control plants were placed in a greenhouse as described above and watered by sub-irrigation to prevent wash-off of the test compounds. After 20-22 d, the condition of the test plants as compared with that of the control plants was determined visually and scored on a scale of 0 to 100 percent where 0 corresponds to no injury and 100 corresponds to complete kill.

[2] = tested on: common sunflower (HELAN); assay type: in vivo, Helianthus annuus
Source text: as §1, §2, §3, §4, §5

[3] = tested on: Johnson grass (SORHA); assay type: in vivo, Sorghum halepense
Source text: as §1, §2, §3, §4, §5

[4] = tested on: wild pansy (VIOTR); assay type: in vivo, Viola tricolor
Source text: as §1, §2, §3, §4, §5

[5] = tested on: common lambsquarters (CHEAL); assay type: in vivo, Chenopodium album L.
Source text: as §1, §2, §3, §4, §5

[6] = tested on: nutsedge (CYPES); assay type: in vivo, Cyperus esculentus
Source text: as §1, §2, §3, §4, §5

[7] = tested on: velvetleaf (ABUTH); assay type: in vivo, Abutilon theophrasti
Source text: as §1, §2, §3, §4, §5

[8] = tested on: ivyleaf morningglory (IPOHE); assay type: in vivo, Ipomoea hederacea
Source text: as §1, §2, §3, §4, §5

[9] = tested on: barnyardgrass (ECHCG); assay type: in vivo, Echinochloa crus-galli
Source text: as §1, §2, §3, §4, §5

[10] = tested on: kochia (KCHSC); assay type: in vivo, Kochia scoparia
Source text: as §1, §2, §3, §4, §5

[11] = tested on: herbicide-resistant kochia (KCHSC-R); assay type: in vivo, Kochia scoparia
Source text: as §1, §2, §3, §4, §5

[12] = tested on: Italian ryegrass (LOLMU); assay type: in vivo, Lolium multiflorum
Source text: as §1, §2, §3, §4, §5

[13] = tested on: winter wheat (TRZAW); assay type: in vivo, Triticum aestivum
Source text: as §1, §2, §3, §4, §5

[14] = tested on: spring wheat (TRZAS); assay type: in vivo, Triticum aestivum; details: applied alone
Source text: as §1, §2, §3, §4, §5

[15] = tested on: wild chamomile (MATCH); assay type: in vivo, Matricaria chamomilla; details: applied alone
Source text: as §1, §2, §3, §4, §5

[16] = tested on: soybean (GLXMA); assay type: in vivo, Glycine max
Source text: as §1, §2, §3, §4, §5

Measured: % visual injury Ob

CCOC(=O)C1=NN(c2ccc(Cl)cc2Cl)C(C)(C(=O)OCC)C1 (centres unmarked) [Mefenpyr-diethyl, mefenpyr-diethyl]
0%: [1]; Mefenpyr-diethyl 20 g/ha | [1]; Mefenpyr-diethyl 40 g/ha | [1]; Mefenpyr-diethyl 80 g/ha | [2]; Mefenpyr-diethyl 20 g/ha | [2]; Mefenpyr-diethyl 40 g/ha | [2]; Mefenpyr-diethyl 80 g/ha | [2]; applied alone, 20 g/ha | [2]; applied alone, 40 g/ha | [2]; applied alone, 80 g/ha | [2]; applied alone, 120 g/ha | [3]; Mefenpyr-diethyl 20 g/ha | [3]; Mefenpyr-diethyl 40 g/ha | [3]; Mefenpyr-diethyl 80 g/ha | [4]; Mefenpyr-diethyl 20 g/ha | [4]; Mefenpyr-diethyl 40 g/ha | [4]; Mefenpyr-diethyl 80 g/ha | [5]; Mefenpyr-diethyl 20 g/ha | [5]; Mefenpyr-diethyl 40 g/ha | [5]; Mefenpyr-diethyl 80 g/ha | [6]; Mefenpyr-diethyl 20 g/ha | [6]; Mefenpyr-diethyl 40 g/ha | [6]; Mefenpyr-diethyl 80 g/ha | [6]; applied alone, 20 g/ha | [6]; applied alone, 40 g/ha | [6]; applied alone, 80 g/ha | [6]; applied alone, 120 g/ha | [7]; Mefenpyr-diethyl 20 g/ha | [7]; Mefenpyr-diethyl 40 g/ha | [7]; Mefenpyr-diethyl 80 g/ha | [8]; Mefenpyr-diethyl 20 g/ha | [8]; Mefenpyr-diethyl 40 g/ha | [8]; Mefenpyr-diethyl 80 g/ha | [9]; Mefenpyr-diethyl 20 g/ha | [9]; Mefenpyr-diethyl 40 g/ha | [9]; Mefenpyr-diethyl 80 g/ha | [10]; Mefenpyr-diethyl 20 g/ha | [10]; Mefenpyr-diethyl 40 g/ha | [10]; Mefenpyr-diethyl 80 g/ha | [11]; Mefenpyr-diethyl 20 g/ha | [11]; Mefenpyr-diethyl 40 g/ha | [11]; Mefenpyr-diethyl 80 g/ha | [12]; Mefenpyr-diethyl 20 g/ha | [12]; Mefenpyr-diethyl 40 g/ha | [12]; Mefenpyr-diethyl 80 g/ha | [13]; Mefenpyr-diethyl 20 g/ha | [13]; Mefenpyr-diethyl 40 g/ha | [13]; Mefenpyr-diethyl 80 g/ha | [13]; applied alone, 20 g/ha | [13]; applied alone, 40 g/ha | [13]; applied alone, 80 g/ha | [13]; applied alone, 120 g/ha | [14]; 10 g/ha | [14]; 20 g/ha | [14]; 40 g/ha | [14]; 80 g/ha | [14]; 120 g/ha | [15]; 10 g/ha | [15]; 20 g/ha | [15]; 40 g/ha | [16]; Mefenpyr-diethyl 20 g/ha | [16]; Mefenpyr-diethyl 40 g/ha | [16]; Mefenpyr-diethyl 80 g/ha
